{"source": "ChEMBL document CHEMBL3886179", "about": "“Substituted 6, 7-dialkoxy-3-isoquinoline derivatives as inhibitors of phosphodiesterase 10 (PDE 10A)” (2015)", "note": "pIC50: −log10 of the molar value. Several values for one entry are separate records, joined by “and”; a condition that tells them apart may be missing. Equal values may be shown once."}
{"molecular_target": "cAMP and cAMP-inhibited cGMP 3',5'-cyclic phosphodiesterase 10A (Homo sapiens, UniProt Q9Y233)", "sequence (Q9Y233 whole entry)": "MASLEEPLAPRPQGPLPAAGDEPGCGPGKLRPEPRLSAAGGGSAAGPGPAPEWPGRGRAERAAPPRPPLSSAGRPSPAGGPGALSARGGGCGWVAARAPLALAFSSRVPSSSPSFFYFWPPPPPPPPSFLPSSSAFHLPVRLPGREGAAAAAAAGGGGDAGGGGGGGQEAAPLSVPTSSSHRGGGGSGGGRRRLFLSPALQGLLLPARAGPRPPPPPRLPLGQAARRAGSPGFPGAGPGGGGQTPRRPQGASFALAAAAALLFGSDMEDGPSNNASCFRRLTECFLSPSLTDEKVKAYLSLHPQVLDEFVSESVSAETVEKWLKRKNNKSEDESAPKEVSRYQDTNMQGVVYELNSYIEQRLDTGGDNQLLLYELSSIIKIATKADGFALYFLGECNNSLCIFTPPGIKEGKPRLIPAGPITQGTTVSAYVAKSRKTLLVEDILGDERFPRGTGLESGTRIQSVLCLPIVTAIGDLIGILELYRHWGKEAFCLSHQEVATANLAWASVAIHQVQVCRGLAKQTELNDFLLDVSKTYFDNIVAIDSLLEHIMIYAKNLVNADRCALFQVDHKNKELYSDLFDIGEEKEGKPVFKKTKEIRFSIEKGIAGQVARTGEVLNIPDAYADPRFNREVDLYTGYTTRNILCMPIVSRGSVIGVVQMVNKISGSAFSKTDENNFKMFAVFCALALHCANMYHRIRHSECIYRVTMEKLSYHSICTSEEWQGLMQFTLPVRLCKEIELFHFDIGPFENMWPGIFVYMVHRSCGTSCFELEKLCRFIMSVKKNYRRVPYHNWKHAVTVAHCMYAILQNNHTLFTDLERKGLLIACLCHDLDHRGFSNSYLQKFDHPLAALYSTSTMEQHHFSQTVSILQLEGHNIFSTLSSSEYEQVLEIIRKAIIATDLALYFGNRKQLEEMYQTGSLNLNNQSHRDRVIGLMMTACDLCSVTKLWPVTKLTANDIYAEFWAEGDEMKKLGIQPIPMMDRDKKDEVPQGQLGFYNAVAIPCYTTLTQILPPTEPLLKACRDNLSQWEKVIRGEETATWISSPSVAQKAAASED", "assay": "Diaxonhit Phosphodiesterase Assay: The phosphodiesterase assay was developed using the LANCE cAMP kit (PerkinElmer). The assay buffer contained HBSS with 5 mM HEPES, 0.1% BSA, and 1.5 mM MgCl2, pH 7.4. PDE10A (BPS Bioscience) was used at 200 pg/well (with a specific activity of 3200 pmole/min/ug with assay conditions: 10 mM Tris-HCl, pH 7.4, 10 mM MgCl2, 1 mM MnCl2, 200 uM cAMP, 2.5 kU 5' nucleotidase, 37° C., 20 min) and PDE4D3 (BPS Bioscience) was used at 100 pg/well (with a specific activity of 32713 pmole/min/ug with assay conditions: 10 mM Tris-HCl, pH 7.4, 10 mM MgCl2, 1 mM MnCl2, 200 uM cAMP, 2.5 kU 5' nucleotidase, 37° C., 20 min). The Biotin-cAMP tracer, supplied in 10 mmol/L Tris-HCl buffered (pH 8.0) salt solution with 1 mmol/L ethylenediaminetetraacetic acid (EDTA), 0.1% bovine serum albumin (BSA), and 0.05% sodium azide, is used at a dilution of 1/375. The assay detection mixture contained the LANCE Eu-W8044 labeled streptavidin 1/2250 (supplied in 50 mmol/L Tris-HCl buffer)."}
{"smiles": "COc1cc2cncc(Cc3ccc4ccccc4n3)c2cc1OC", "pIC50": 6.68}
{"smiles": "CCOC(=O)COc1cccc2ccc(Cc3cnc(COC)c4cc(OC)c(OC)cc34)nc12", "pIC50": 7.15}
{"smiles": "COc1cc2cncc(Cc3ccc4c(c3)CCC(C)(C)O4)c2cc1OC", "pIC50": 7.09}
{"smiles": "COc1cc2cncc(Cc3ccc4cccc(OCc5ccncc5)c4n3)c2cc1OC", "pIC50": 6.67}
{"smiles": "CCc1ncc(Cc2cc3cc(OC)ccc3nc2O)c2cc(OC)c(OC)cc12", "pIC50": 7.36}
{"smiles": "CCc1ncc(Cc2cnc3ccc(NS(N)(=O)=O)cc3c2)c2cc(OC)c(OC)cc12", "pIC50": 8.34}
{"smiles": "CCc1ncc(Cc2ccc3cccc(NS(=O)(=O)CC)c3n2)c2cc(OC)c(OC)cc12", "pIC50": 8.46}
{"smiles": "COc1cc2cncc(Cc3ccc4oc(-c5cccc(CO)c5)nc4c3)c2cc1OC", "pIC50": 7.55}
{"smiles": "COCc1ncc(Cc2ccc3cccc(NS(N)(=O)=O)c3n2)c2cc(OC)c(OC)cc12", "pIC50": 9.74}
{"smiles": "COCc1ncc(Cc2ccc3cccc(O)c3n2)c2cc(OC)c(OC)cc12", "pIC50": 7.72}
{"smiles": "COc1cc2cncc(Cc3cnc4cc(C)ccc4c3)c2cc1OC", "pIC50": 8.92}
{"smiles": "COc1cc2cncc(Cc3ccc4[nH]c(=O)oc4c3)c2cc1OC", "pIC50": 7.47}
{"smiles": "CCc1ncc(Cc2ccc3cccc(NS(N)(=O)=O)c3n2)c2cc(OC)c(OC)cc12", "pIC50": 9.28}
{"smiles": "CCc1ncc(Cc2cnc3ccc(N)cc3c2)c2cc(OC)c(OC)cc12", "pIC50": 7.89}
{"smiles": "COc1cc2cncc(Cc3cnc4ccccc4c3)c2cc1OC", "pIC50": 7.89}
{"smiles": "CCc1ncc(Cc2ccc3cccc(OC(C)=O)c3n2)c2cc(OC)c(OC)cc12", "pIC50": 5.51}
{"smiles": "COc1cc2cncc(Cc3ccc4cccc(N)c4n3)c2cc1OC", "pIC50": 7.89}
{"smiles": "COc1cc2c(Cc3ccc4ccccc4c3)cnc(C)c2cc1OC", "pIC50": 6.71}
{"smiles": "COc1cc2cncc(Cc3ccc4ncccc4c3)c2cc1OC", "pIC50": 7.27}
{"smiles": "COc1cc2cncc(Cc3ccc4nc(C)ccc4c3)c2cc1OC", "pIC50": 8.19}
{"smiles": "COc1cc2cncc(Cc3ccc4oc(-c5ccc(CO)cc5)nc4c3)c2cc1OC", "pIC50": 7.72}
{"smiles": "CCc1ncc(Cc2ccc3nc(C)ccc3c2)c2cc(OC)c(OC)cc12", "pIC50": 7.55}
{"smiles": "COc1cc2cncc(Cc3coc4c(Cl)cc(Cl)cc4c3=O)c2cc1OC", "pIC50": 7.57}
{"smiles": "COCc1ncc(Cc2ccc3cccc(OCC(N)=O)c3n2)c2cc(OC)c(OC)cc12", "pIC50": 7.68}
{"smiles": "CCCc1ncc(Cc2coc3ccc(F)cc3c2=O)c2cc(OC)c(OC)cc12", "pIC50": 7.27}
{"smiles": "COCc1ncc(Cc2cnc3ccc(O)cc3c2)c2cc(OC)c(OC)cc12", "pIC50": 8.25}
{"smiles": "CCCc1ncc(Cc2ccc3cccc(OCC(=O)O)c3n2)c2cc(OC)c(OC)cc12", "pIC50": 8.31}
{"smiles": "COc1cc2c(Cc3ccc4cccc(OCC(N)=O)c4n3)cnc(C)c2cc1OC", "pIC50": 7.19}
{"smiles": "COc1cc2cncc(Cc3ccc4cccc(OCc5cccnc5)c4n3)c2cc1OC", "pIC50": 7.05}
{"smiles": "COc1cc2cncc(Cc3ccc4oc(-c5ccccc5CO)nc4c3)c2cc1OC", "pIC50": 7.02}
{"smiles": "CCc1ncc(Cc2cnc3ccc(N4CCCC4=O)cc3c2)c2cc(OC)c(OC)cc12", "pIC50": 7.82}
{"smiles": "CCOc1c(Cc2cncc3cc(OC)c(OC)cc23)cnc2c1cnn2CC", "pIC50": 5.45}
{"smiles": "COCc1ncc(Cc2ccc3cccc(OCCO)c3n2)c2cc(OC)c(OC)cc12", "pIC50": 7.55}
{"smiles": "COc1cc2c(Cc3ccc4nc(C)ccc4c3)cnc(CC(C)C)c2cc1OC", "pIC50": 7.51}
{"smiles": "COc1cc2cncc(Cc3ccc4cccc(NS(N)(=O)=O)c4n3)c2cc1OC", "pIC50": 9.38}
{"smiles": "COc1cc2cncc(Cc3coc4ccccc4c3=O)c2cc1OC", "pIC50": 7.39}
{"smiles": "CCc1ncc(Cc2ccc3cccc(NS(C)(=O)=O)c3n2)c2cc(OC)c(OC)cc12", "pIC50": 8.08}
{"smiles": "CCc1ncc(Cc2ccc3cccc(NC(C)=O)c3n2)c2cc(OC)c(OC)cc12", "pIC50": 7.77}
{"smiles": "CCCCc1ncc(Cc2cnc3ccccc3c2)c2cc(OC)c(OC)cc12", "pIC50": 7.04}
{"smiles": "COc1cc2cncc(Cc3ccc4c(c3)CCN4C)c2cc1OC", "pIC50": 6.88}
{"smiles": "CCOc1cc2c(Cc3cnc4ccccc4c3)cncc2cc1OC", "pIC50": 7.04}
{"smiles": "COc1cc2cncc(Cc3ccc4cccc(OCC(N)=O)c4n3)c2cc1OC", "pIC50": 7.68}
{"smiles": "COc1cc2cncc(Cc3coc4ccc(F)cc4c3=O)c2cc1OC", "pIC50": 7.42}
{"smiles": "COc1cc2cncc(Cc3ccc4[nH]cnc4c3)c2cc1OC", "pIC50": 7.13}
{"smiles": "COc1cc2c(Cc3ccc4cccc(OCC(N)=O)c4n3)cnc(C3CC3)c2cc1OC", "pIC50": 7.17}
{"smiles": "COc1ccc2cc(Cc3cncc4cc(OC)c(OC)cc34)cnc2c1", "pIC50": 7.74}
{"smiles": "CCCCc1ncc(Cc2cnc3cc(C)ccc3c2)c2cc(OC)c(OC)cc12", "pIC50": 6.02}
{"smiles": "COc1cc2cncc(Cc3coc4ccc(C)cc4c3=O)c2cc1OC", "pIC50": 8.29}
{"smiles": "COc1cc2cnc(C)c(Cc3ccc4ccccc4c3)c2cc1OC", "pIC50": 5.97}
{"smiles": "CCCCc1ncc(Cc2ccc3nc(C)ccc3c2)c2cc(OC)c(OC)cc12", "pIC50": 6.81}
{"smiles": "COc1ccc2cc(Cc3cncc4cc(OC)c(OC)cc34)ccc2c1", "pIC50": 7.27}
{"smiles": "CCCc1ncc(Cc2ccc3oc(=O)[nH]c3c2)c2cc(OC)c(OC)cc12", "pIC50": 7.19}
{"smiles": "COc1cc2c(Cc3ccc4oc5ccccc5c4c3)cnc(C)c2cc1OC", "pIC50": 6.74}
{"smiles": "CCCc1ncc(Cc2ccc3c(C(F)(F)F)ccc(OCC(N)=O)c3n2)c2cc(OC)c(OC)cc12", "pIC50": 6.99}
{"smiles": "CCc1ncc(Cc2ccc3cccc(C(N)=O)c3n2)c2cc(OC)c(OC)cc12", "pIC50": 7.11}
{"smiles": "COc1cc2c(Cc3ccc4cccc(O)c4n3)cnc(C)c2cc1OC", "pIC50": 7.38}
{"smiles": "CCc1ncc(Cc2ccc3cccc(NC(N)=O)c3n2)c2cc(OC)c(OC)cc12", "pIC50": 7.24}
{"smiles": "COc1cc2c(Cc3ccc4nc(C)ccc4c3)cnc(C3CCCCC3)c2cc1OC", "pIC50": 6.43}
{"smiles": "COCc1ncc(Cc2ccc3cccc(N)c3n2)c2cc(OC)c(OC)cc12", "pIC50": 8.07}
{"smiles": "CCCc1ncc(Cc2cc3cc(OC)ccc3nc2OCCNC(C)=O)c2cc(OC)c(OC)cc12", "pIC50": 7.19}
{"smiles": "CCCc1ncc(Cc2cnc3ccccc3c2)c2cc(OC)c(OC)cc12", "pIC50": 7.96}
{"smiles": "CCc1ncc(Cc2cc3ccccc3cn2)c2cc(OC)c(OC)cc12", "pIC50": 7.49}
{"smiles": "CCc1ncc(Cc2ccc3cccc(OCc4nnn[nH]4)c3n2)c2cc(OC)c(OC)cc12", "pIC50": 7.51}
{"smiles": "CCCc1ncc(Cc2ccc3cccc(OCCNC(C)=O)c3n2)c2cc(OC)c(OC)cc12", "pIC50": 7.24}
{"smiles": "COc1cc2cncc(Cc3ccc4c(c3)Cc3ccccc3-4)c2cc1OC", "pIC50": 6.96}
{"smiles": "COc1cc2cncc(Cc3ccc4oc(-c5ccc(C#N)cc5)nc4c3)c2cc1OC", "pIC50": 6.83}
{"smiles": "CCOc1cc2c(Cc3ccc4oc5ccccc5c4c3)cncc2cc1OC", "pIC50": 6.54}
{"smiles": "COc1cc2cncc(Cc3cc4ccccc4cn3)c2cc1OC", "pIC50": 7.52}
{"smiles": "CCc1ncc(Cc2cnc3ccc(O)cc3c2)c2cc(OC)c(OC)cc12", "pIC50": 7.55}
{"smiles": "CCCc1ncc(Cc2ccc3cccc(OCC(=O)NC)c3n2)c2cc(OC)c(OC)cc12", "pIC50": 7.29}
{"smiles": "COc1cc2c(Cc3ccc4cccc(NS(N)(=O)=O)c4n3)cnc(C)c2cc1OC", "pIC50": 9.15}
{"smiles": "COc1cc2cncc(Cc3cc4ccccc4nc3Cl)c2cc1OC", "pIC50": 7.02}
{"smiles": "CCc1ncc(Cc2cnc3ccc(NS(C)(=O)=O)cc3c2)c2cc(OC)c(OC)cc12", "pIC50": 7.80}
{"smiles": "COc1cc2cncc(Cc3cnc4ccc(OCC(=O)O)cc4c3)c2cc1OC", "pIC50": 8.10}
{"smiles": "COc1cc2c(Cc3cnc4ccc(O)cc4c3)cnc(C)c2cc1OC", "pIC50": 7.74}
{"smiles": "CCCc1ncc(Cc2ccc3oc4ccccc4c3c2)c2cc(OC)c(OC)cc12", "pIC50": 6.56}
{"smiles": "COc1cc2cncc(Cc3ccc4oc5ccccc5c4c3)c2cc1OC", "pIC50": 8.12}
{"smiles": "CCCc1ncc(Cc2cnc3cc(C)ccc3c2)c2cc(OC)c(OC)cc12", "pIC50": 8.28}
{"smiles": "CCCc1ncc(Cc2ccc3cccc(OCc4nnn[nH]4)c3n2)c2cc(OC)c(OC)cc12", "pIC50": 8.33}
{"smiles": "CCCc1ncc(Cc2ccc3cccc(OCCO)c3n2)c2cc(OC)c(OC)cc12", "pIC50": 8.18}
{"smiles": "CCCc1ncc(Cc2cnc3ccc(O)c(C(F)(F)F)c3c2)c2cc(OC)c(OC)cc12", "pIC50": 7.89}
{"smiles": "COc1cc2cncc(Cc3ccc4nc(-c5ccc(CO)cc5)oc4c3)c2cc1OC", "pIC50": 7.70}
{"smiles": "COc1cc2cncc(Cc3coc4ccc(Cl)cc4c3=O)c2cc1OC", "pIC50": 7.70}
{"smiles": "CCCc1ncc(Cc2ccc3cccc(NC(=O)CO)c3n2)c2cc(OC)c(OC)cc12", "pIC50": 7.82}
{"smiles": "COCc1ncc(Cc2cnc3ccc(O)c(C(F)(F)F)c3c2)c2cc(OC)c(OC)cc12", "pIC50": 8.35}
{"smiles": "COc1cc2cnc(C)c(Cc3ccc4cccc(O)c4n3)c2cc1OC", "pIC50": 7.39}
{"smiles": "CCCc1ncc(Cc2cc3cc(OCC)ccc3nc2O)c2cc(OC)c(OC)cc12", "pIC50": 7.00}
{"smiles": "COc1cc2cncc(Cc3ccc4oc(-c5ccc(N)cc5)nc4c3)c2cc1OC", "pIC50": 7.31}
{"smiles": "COc1cc2c(Cc3cnc4ccccc4c3)cnc(C3CC3)c2cc1OC", "pIC50": 7.38}
{"smiles": "CCc1ncc(Cc2ccc3cccc(OCCO)c3n2)c2cc(OC)c(OC)cc12", "pIC50": 6.72}
{"smiles": "CCCc1ncc(Cc2ccc3cccc(NC(=O)COC(C)=O)c3n2)c2cc(OC)c(OC)cc12", "pIC50": 6.69}
{"smiles": "CCCc1ncc(Cc2ccc3cccc(OCC(N)=O)c3n2)c2cc(OC)c(OC)cc12", "pIC50": "8.85 and 8.28"}
{"smiles": "CCOC(=O)COc1cccc2ccc(Cc3cncc4cc(OC)c(OC)cc34)nc12", "pIC50": 7.29}
{"smiles": "CCc1ncc(Cc2ccc3cccc(NC(=O)C(N)=O)c3n2)c2cc(OC)c(OC)cc12", "pIC50": 7.77}
{"smiles": "COc1cc2cncc(Cc3cnc4ccc(OCC(N)=O)cc4c3)c2cc1OC", "pIC50": 8.60}
{"smiles": "CCCc1ncc(Cc2ccc3c(C(F)(F)F)ccc(O)c3n2)c2cc(OC)c(OC)cc12", "pIC50": 6.31}
{"smiles": "COc1cc2cncc(Cc3ccc4cccc(O)c4n3)c2cc1OC", "pIC50": 7.64}
{"smiles": "CCCc1ncc(Cc2cnc3ccc(O)cc3c2)c2cc(OC)c(OC)cc12", "pIC50": 8.03}
{"smiles": "CCCc1ncc(Cc2ccc3cccc(NS(N)(=O)=O)c3n2)c2cc(OC)c(OC)cc12", "pIC50": 9.09}
{"smiles": "c1ccc2c(c1)oc1ccc(Cc3cncc4cc5c(cc34)OCCO5)cc12", "pIC50": 5.12}
{"smiles": "CCCc1ncc(Cc2ccc3cccc(OC(C)=O)c3n2)c2cc(OC)c(OC)cc12", "pIC50": 6.96}
{"smiles": "COc1cc2cncc(Cc3ccc4ccccc4c3)c2cc1OC", "pIC50": 6.98}
{"smiles": "COc1cc2c(Cc3ccc4nc(C)ccc4c3)cnc(C3CC3)c2cc1OC", "pIC50": 7.60}
